Test results published in US20250263441A1 (Metanovas Biotech Inc., priority 2024, published 2025).
Several values for one entry are separate records, joined by “and”; a condition that tells them apart may be missing. Equal values may be shown once.

Legend:
Format in all cases: cell-based
[1] = tested on: rabbit blood erythrocytes; assay: Measurement of hemolytic concentration; details: for Hemolysis rate: 37° C., 1 hour, replicate wells
Protocol: 4 mL of 2% rabbit blood erythrocytes were washed twice with 4 mL PBS and centrifuged at 3000 rpm for 5 minutes. The supernatant was discarded, and the rabbit blood erythrocytes were resuspended in 4 mL PBS. 160 μg of the peptides from Examples 1 to 2, FK13, and HPA3NT3 were independently dissolved in 1 mL PBS buffer to prepare the peptide mother solutions with a concentration of 160 μg/mL. Subsequently, the peptide mother solutions were diluted with PBS buffer to concentrations of 80 μg/mL, 64 μg/mL, 32 μg/mL, 16 μg/mL, and 8 μg/mL. 100 μL of the 2% rabbit blood erythrocytes and 100 μL of different concentrations of peptides (80 μg/mL, 64 μg/mL, 32 μg/mL, 16 μg/mL, 8 μg/mL) were added to each well of a 96-well plate. In the negative control, 100 μL of PBS buffer was added, while in the positive control, 100 μL of 0.1% (w/v) Triton X-100 was added. Three replicate wells were set up for each group and incubated at 37° C. for 1 hour. The 96-well plate was then removed, centrifuged at 3000 rpm for 5 minutes, and 100 μL of supernatant was aspirated and transferred to a new 96-well plate. The absorbance was measured at 540 nm using an enzyme meter. Hemolysis rate (%)=((Absorbancesample−Absorbancenegative)/(Absorbancepositive−Absorbancenegative))*100%.

[2] = tested on: HaCat (human immortalized epidermal cells) cells; assay: Cytotoxic assay (CCK-8) in HaCat cells; details: 60 hours
Protocol: Preparation of Cell Suspension: HaCat (human immortalized epidermal cells) cells were counted and inoculated into 96-well plates. 100 μL of cell suspension was added to each well, corresponding to a density of 5×10^4 cells per well, with three replicates for each sample. The cells were cultured in a 37° C. incubator for 4 hours until they were attached to the plate. Peptides from the examples, as well as FK13 and HPA3NT3, were then added at concentrations of 80 μg/mL, 32 μg/mL, and 8 μg/mL. The cells were incubated at 37° C. for 60 hours. Afterward, 10 μL of CCK-8 solution was added, and the cells were cultured for an additional 2 hours. The absorbance of the peptides at 450 nm was measured using a dual-wavelength detector, with a detection wavelength of 450-490 nm and a reference wavelength of 600-650 nm.

[3] = tested on: Propionibacterium acnes (ATCC: 6919); assay: Inhibitory effect of AMP-33 on Propionibacterium acnes (viability, OD 630 nm); set-up: Viability of Propionibacterium acnes: unit: %; details: for Viability of Propionibacterium acnes: 48 hours, repeated experiments
Protocol: (1) Propionibacterium acnes was inoculated into Wilkins Chalgren liquid medium and cultured overnight under anaerobic conditions at 37° C. (Labiophy HL-B fully automated anaerobic workstation).
(2) 200 μL of the Wilkins Chalgren liquid culture medium and a predetermined concentration of the peptide AMP-33 were added to a 96-deep-well plate. Then, 10 μL of Propionibacterium acnes was inoculated (mix well before inoculation).
(3) After 48 hours of cultivation under anaerobic conditions at 37° C., the turbidity of the bacterial solution was observed. Then, 100 μL of the solution was taken, and the OD at 630 nm was measured using the enzyme-linked immunosorbent assay (ELISA) reading plate (after multiple blows and mixing).
(§1) [formula] • OD Measurement: OD value of the test peptide. • ODneg: OD value with no bacterial inoculation, containing only […] medium. • ODpos: OD value with bacterial inoculation and without inhibitors.

[4] = tested on: Staphylococcus aureus (ATCC: 25913); assay: Inhibitory effect of AMP-33 on Staphylococcus aureus (viability, OD 630 nm); details: for Viability of Staphylococcus aureus: 24 hours, repeated experiments
Protocol: (1) Staphylococcus aureus and Escherichia coli were inoculated into LB liquid medium and cultured overnight under aerobic conditions at 37° C. and […] on a shaker.
(2) 200 μL of LB liquid culture medium and a predetermined concentration of peptide AMP-33 were added to a 96-deep-well plate. Then, 10 μL of the Staphylococcus aureus/Escherichia coli solution was inoculated (mixed well before inoculation).
(3) After incubating at […] for 24 hours on a shaking table at 37° C., the turbidity of the bacterial solution was observed. A volume of 100 μL of the solution was taken, and the OD at 630 nm was measured using an enzyme-linked immunosorbent assay (ELISA) reader (after multiple blows and mixing).
as §1

[5] = tested on: Mouse macrophage RAW264.7 cells; assay: RT-qPCR of inflammation markers in LPS-stimulated RAW264.7 cells; details: LPS 10 ng/ml, 24 hours; repeated experiments
Protocol: (1) Mouse macrophage RAW264.7 cells were cultured in DMEM supplemented with 10% fetal bovine serum (FBS) and 1% penicillin and streptomycin (P/S) at 37° C. in a 5% CO2 incubator.
(2) 5×10^4 mouse-derived RAW264.7 macrophages were placed in 12-well cell culture plates and cultured for 24 hours. Then, 20 μL of PBS (negative control), Dexamethasone (positive control), and the test peptide were added to the wells for incubation for 2 hours. Afterward, 10 ng/ml of lipopolysaccharide (LPS) was mixed with RAW264.7 cells and incubated for 24 hours.
(4) The cells were collected, and total RNA was isolated and extracted, reverse transcribed, and subjected to RT-qPCR to detect inflammation markers, including TNF-α, IL-1β, IL-6/10, CCL2, IFN-γ, iNOS, and GAPDH.
3. After treating RAW264.7 cells with AMP-33, RT-qPCR was used to detect the levels of IL-6 and IL-1ß mRNA.

Example 2: LSKWLKKLGKLLAG (designated as AMP33)
Hemolysis rate ([1]; 8 μg/mL): 3.6% and 7.9% and 23% | Hemolysis rate ([1]; 16 μg/mL): 2.6% and 1.7% and −0.4% | Hemolysis rate ([1]; 32 μg/mL): 0.6% and 4.6% and 3.3% | Hemolysis rate ([1]; 64 μg/mL): 0.7% and −0.8% and −2.0% | Hemolysis rate ([1]; 80 μg/mL): 10.1% (2×) and 11.1% | Minimum hemolytic concentration ([1]; rabbit erythrocytes): 64.0 µg/mL | Maximum cytotoxicity-free concentration [2]: 80 µg/mL | Viability of Propionibacterium acnes ([3]; 1 μg/mL): 94.82 and 113.75 and 94.03 | Viability of Propionibacterium acnes ([3]; 2 μg/mL): 79.37 and 65.48 and 68.87 | inhibition of Propionibacterium acnes ([3]; 4 ppm): over 90% | Viability of Staphylococcus aureus ([4]; 1 μg/mL): 117.78 and 116.41 and 116.45 | Viability of Staphylococcus aureus ([4]; 2 μg/mL): 121.60 and 104.84 and 102.77 | Viability of Staphylococcus aureus ([4]; 4 μg/mL): 88.75 and 109.74 and 132.77 | Viability of Staphylococcus aureus ([4]; 8 μg/mL): 98.53 and 99.19 and 97.03 | inhibition of Staphylococcus aureus ([4]; 50 ppm): over 99% | CCL-2 mRNA level [5]: 0.51 and 0.52 and 0.58 | COX-2 mRNA level [5]: 0.71 and 0.58 and 1.16 | IL-1β mRNA level [5]: 0.40 and 0.45 and 0.77 | IL-6 mRNA level [5]: 0.96 and 0.49 and 0.95 | IL-10 mRNA level [5]: 1.80 and 2.50 and 1.32
